The results in this text go back to PMC5762315, “Inhibition of polo-like kinase 4 (PLK4): a new therapeutic option for rhabdoid tumors and pediatric medulloblastoma” (Oncotarget, 2017).

For assay [1], the system named is G401, BT-16, DAOY and D283 cell lines. Kind of assay: Flow cytometry cell cycle analysis (polyploidy), other RT and MB lines. Type of assay: cell-based, human. Particulars: 100nM for 48 hours. As for the experimental part:
(§1) Cell cycle evaluation was performed by staining the cells with PI (Thermo Fisher Scientific, USA) according to manufacturer’s instructions. […] Data was analyzed using Modfit LT from Verity Software House. Experiments were performed in triplicates.
(A flow cytometer gives signals particle by particle.)

In assay [2] the test system is non-neoplastic human fibroblast cell line HFF-SCC058. Kind of assay: Flow cytometry cell cycle analysis (polyploidy), fibroblasts. The conditions noted are these: 100nM. Type of assay: cell-based. As for the experimental part: as §1
A further assay concerns the target DDR2 (Homo sapiens, UniProt Q16832). Kind of assay: Kinase activity screening (SelectScreen), DDR2. It is filed as biochemical.
Assay [3] relates to MON rhabdoid cells. Description: Flow cytometry cell cycle analysis (polyploidy), MON. It is filed as cell-based, human. Particulars: 100nM for 3-72 hours. As for the experimental part:
as §1

Assay [4] has as its system MON rhabdoid cells. Kind of assay: Immunofluorescence for gamma-tubulin (centriole number), MON. It is filed as cell-based, human. The conditions noted are these: 48 hours. As for the experimental part:
The cells were then blocked in blocking buffer (5% BSA (Jackson Immuno Research Laboratories Inc., USA) in PBST) for 1 hour at RT. The primary antibody ([…] 1:500, Sigma, USA) diluted in 1% BSA in PBST was then added and incubated at 4°C overnight. Then, the cells were washed with 1X PBS thrice. Secondary antibody (Anti-Rabbit IgG (H+L) F (ab’) 2, 1:500, Sigma, USA) diluted in 1% BSA in PBST was added and incubated at RT for 2 hours. Three time washes with 1X PBS were performed. Then, 1mL of DAPI (Thermo Fisher Scientific, USA) in PBS (0.5μl of DAPI in 10 ml PBS) was added to the cells and incubated for 10 min at RT. Finally, 3 time washes with 1X PBS were performed and slides were mounted using Mounting Medium (Thermo Fisher Scientific, USA).

The test system of the next assay is G401 cells. Kind of assay: Viability assay (Presto Blue), G401. It is filed as cell-based. The conditions noted are these: Homo sapiens, G-401, dose-response 1nM to 10μM. As for the experimental part:
(§2) Except DAOY and D283, all cell lines were plated with 2 x 10^3 cells per well 96-well and the absorbance was measured after 48 and 72 hours at drug concentrations of 5, 10, 50, 100, 200, 500nM, 1μM and 5μM.

A further assay has as its target ROS1 (Homo sapiens, UniProt P08922). Description: Kinase activity screening (SelectScreen), ROS1. It is filed as biochemical. The conditions noted are these: ZLYTE.
The next assay relates to G401 RTK cells. Kind of assay: Confluency assay (IncuCyte ZOOM), G401. It is filed as cell-based, human. Particulars: increasing concentrations starting at 31.25nM, 48 hours, p-value=0.004. As for the experimental part:
For further evaluation of the effect of the PLK4 inhibitor over tumor cell proliferation, confluency was measured over a 48 hour period. MON, BT-12, G401 and DAOY cells were plated in 96-well plates with a density of 6 x 10^4 per well. […] Confluency was monitored for 48 hours by taking phase contrast images every 2 hours and measured using an IncuCyte ZOOM system (Essen BioScience, USA). Experiments were performed in triplicates.

In assay [5] the target is TEK (Homo sapiens, UniProt Q02763, Y897S). Description: Kinase activity screening (SelectScreen), TEK. Type of assay: biochemical. The conditions noted are these: kinase TEK (TIE2) Y897S; ZLYTE.
Assay [6] concerns the target TEK (Homo sapiens, UniProt Q02763, R849W). Kind of assay: Kinase activity screening (SelectScreen), TEK. It is filed as biochemical. Particulars: kinase TEK (TIE2) R849W; LanthaScreen Binding. In general terms: TR-FRET usually uses a lanthanide donor and a delayed reading to cut background.
Assay [7] addresses TEK (Homo sapiens, UniProt Q02763, Y1108F). Description: Kinase activity screening (SelectScreen), TEK. Type of assay: biochemical.
The test system of assay [8] is TEK. Description: Kinase activity screening (SelectScreen), TEK. The conditions noted are these: kinase TEK (Tie2); ZLYTE. It is filed as biochemical.
For assay [9], the system named is MON, G401, BT-12, BT-16, DAOY and D283 cell lines. Description: Senescence beta-galactosidase assay. It is filed as cell-based, human. Particulars: all cell lines (MON, G401, BT-12, BT-16, DAOY, D283); 100nM, 48 hours. As for the experimental part: For each cell line, cells were seeded in 6-well plates in triplicates with 100,000 cells per well. Treatment medium was added the next day and incubated for 48 or 72 hrs. After incubation, cells were washed twice with 1X PBS and 1mL of the Fixation Buffer from the kit was added to each well of the plate and incubated at RT for 5 min. Cells were washed with 1X PBS and 1mL of staining solution from the kit was added to each well and incubated at 37°C without CO2 overnight. The next day, the cells were washed with 1X PBS and the numbers of blue stained cells (which indicate senescent cells) and unstained cells were counted in image J (www.imagej.nih.gov). The percentage of senescent cells was calculated.

The test system of another assay is DAOY cells. Kind of assay: Viability assay (Presto Blue), DAOY. It is filed as cell-based. Particulars: Homo sapiens, dose-response 1nM to 10μM.
The test system of the next assay is D283 cells. Description: Colony formation assay, D283. It is filed as cell-based, human. The conditions noted are these: 50nM.
The next assay has as its system BT-12 cells. Kind of assay: Viability assay (Presto Blue), BT-12. Type of assay: cell-based. Particulars: Homo sapiens, dose-response 1nM to 10μM. As for the experimental part:
as §2

For a further assay, the system named is RT and MB cell lines. Description: Clonogenic recovery assay. Type of assay: cell-based, human. The conditions noted are these: 6 days 100nM, then 12 days 0.1% DMSO. As for the experimental part:
For each cell line, 200 cells were seeded into 6-well tissue culture plates. […] On the 7th day, cell were washed with 1X PBS twice and then incubated with 0.1% DMSO for an additional 12 days. […] The number of colonies was counted. All experiments were performed in triplicates.

For assay [10], the system named is MON, G401, BT-12 and BT-16 rhabdoid cell lines. Description: Flow cytometry apoptosis (Annexin V / PI). Type of assay: cell-based, human. The conditions noted are these: G401, BT-12, BT-16, 100nM for 48 hours. As for the experimental part: Live cells were stained with Annexin V as an indicator of early apoptosis and Propidium Iodide (PI - Thermo Fisher Scientific, USA) for detection of late apoptosis and necrosis, according to manufacturer’s instructions (Thermo Fisher Scientific, USA). Flow cytometric analysis was performed on a BD Fortessa instrument (BD Biosciences, USA) within an hour of staining. Data was analyzed using Modfit LT from Verity Software House. All experiments were performed in triplicates.

“And” between values parts separate entries of the source, which are not always exact repeats. Equal entries are not always repeated.

Chain of DDR2 (Q16832 22-855): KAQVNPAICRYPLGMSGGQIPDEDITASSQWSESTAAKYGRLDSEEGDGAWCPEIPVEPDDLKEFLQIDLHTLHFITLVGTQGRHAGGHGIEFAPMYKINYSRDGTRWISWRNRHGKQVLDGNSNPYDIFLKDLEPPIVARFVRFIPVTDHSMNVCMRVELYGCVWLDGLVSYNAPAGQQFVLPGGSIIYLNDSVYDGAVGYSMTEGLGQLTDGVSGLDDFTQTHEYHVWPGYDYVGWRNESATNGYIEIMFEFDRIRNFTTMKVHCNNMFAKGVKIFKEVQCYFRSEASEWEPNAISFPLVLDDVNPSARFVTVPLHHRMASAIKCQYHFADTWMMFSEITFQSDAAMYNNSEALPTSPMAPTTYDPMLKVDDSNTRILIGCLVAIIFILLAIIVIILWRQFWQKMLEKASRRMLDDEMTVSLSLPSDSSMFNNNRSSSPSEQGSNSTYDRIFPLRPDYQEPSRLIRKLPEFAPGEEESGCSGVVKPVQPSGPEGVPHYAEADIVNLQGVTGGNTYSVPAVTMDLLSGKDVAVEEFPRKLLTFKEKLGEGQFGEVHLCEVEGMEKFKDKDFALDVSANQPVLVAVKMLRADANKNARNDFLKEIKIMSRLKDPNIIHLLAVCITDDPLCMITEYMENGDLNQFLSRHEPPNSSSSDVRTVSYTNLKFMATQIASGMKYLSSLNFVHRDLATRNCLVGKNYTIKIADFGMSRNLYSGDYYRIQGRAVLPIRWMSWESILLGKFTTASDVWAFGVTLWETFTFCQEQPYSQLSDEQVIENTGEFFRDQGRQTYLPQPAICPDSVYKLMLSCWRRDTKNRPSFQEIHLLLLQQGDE
Chain of TEK (Homo sapiens, UniProt Q02763, Y897S) (Q02763 771-1124 Y897S): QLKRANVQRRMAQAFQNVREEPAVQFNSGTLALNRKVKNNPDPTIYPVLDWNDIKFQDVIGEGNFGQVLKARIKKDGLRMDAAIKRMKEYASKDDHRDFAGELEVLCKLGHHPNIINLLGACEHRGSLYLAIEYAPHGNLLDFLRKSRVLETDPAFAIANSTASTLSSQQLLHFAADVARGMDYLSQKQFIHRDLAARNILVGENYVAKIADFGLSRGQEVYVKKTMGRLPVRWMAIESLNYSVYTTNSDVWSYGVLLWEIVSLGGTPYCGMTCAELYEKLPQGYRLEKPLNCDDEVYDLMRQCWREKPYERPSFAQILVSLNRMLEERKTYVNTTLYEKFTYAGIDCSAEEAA
Chain of TEK (Homo sapiens, UniProt Q02763, Y1108F) (Q02763 771-1124 Y1108F): as the sequence (Q02763 771-1124 Y897S) above, with S127Y, Y338F counted along it
Chain of TEK (Homo sapiens, UniProt Q02763, R849W) (Q02763 771-1124 R849W): as the sequence (Q02763 771-1124 Y897S) above, with R79W, S127Y counted along it
Chain of ROS1 (P08922 28-2347): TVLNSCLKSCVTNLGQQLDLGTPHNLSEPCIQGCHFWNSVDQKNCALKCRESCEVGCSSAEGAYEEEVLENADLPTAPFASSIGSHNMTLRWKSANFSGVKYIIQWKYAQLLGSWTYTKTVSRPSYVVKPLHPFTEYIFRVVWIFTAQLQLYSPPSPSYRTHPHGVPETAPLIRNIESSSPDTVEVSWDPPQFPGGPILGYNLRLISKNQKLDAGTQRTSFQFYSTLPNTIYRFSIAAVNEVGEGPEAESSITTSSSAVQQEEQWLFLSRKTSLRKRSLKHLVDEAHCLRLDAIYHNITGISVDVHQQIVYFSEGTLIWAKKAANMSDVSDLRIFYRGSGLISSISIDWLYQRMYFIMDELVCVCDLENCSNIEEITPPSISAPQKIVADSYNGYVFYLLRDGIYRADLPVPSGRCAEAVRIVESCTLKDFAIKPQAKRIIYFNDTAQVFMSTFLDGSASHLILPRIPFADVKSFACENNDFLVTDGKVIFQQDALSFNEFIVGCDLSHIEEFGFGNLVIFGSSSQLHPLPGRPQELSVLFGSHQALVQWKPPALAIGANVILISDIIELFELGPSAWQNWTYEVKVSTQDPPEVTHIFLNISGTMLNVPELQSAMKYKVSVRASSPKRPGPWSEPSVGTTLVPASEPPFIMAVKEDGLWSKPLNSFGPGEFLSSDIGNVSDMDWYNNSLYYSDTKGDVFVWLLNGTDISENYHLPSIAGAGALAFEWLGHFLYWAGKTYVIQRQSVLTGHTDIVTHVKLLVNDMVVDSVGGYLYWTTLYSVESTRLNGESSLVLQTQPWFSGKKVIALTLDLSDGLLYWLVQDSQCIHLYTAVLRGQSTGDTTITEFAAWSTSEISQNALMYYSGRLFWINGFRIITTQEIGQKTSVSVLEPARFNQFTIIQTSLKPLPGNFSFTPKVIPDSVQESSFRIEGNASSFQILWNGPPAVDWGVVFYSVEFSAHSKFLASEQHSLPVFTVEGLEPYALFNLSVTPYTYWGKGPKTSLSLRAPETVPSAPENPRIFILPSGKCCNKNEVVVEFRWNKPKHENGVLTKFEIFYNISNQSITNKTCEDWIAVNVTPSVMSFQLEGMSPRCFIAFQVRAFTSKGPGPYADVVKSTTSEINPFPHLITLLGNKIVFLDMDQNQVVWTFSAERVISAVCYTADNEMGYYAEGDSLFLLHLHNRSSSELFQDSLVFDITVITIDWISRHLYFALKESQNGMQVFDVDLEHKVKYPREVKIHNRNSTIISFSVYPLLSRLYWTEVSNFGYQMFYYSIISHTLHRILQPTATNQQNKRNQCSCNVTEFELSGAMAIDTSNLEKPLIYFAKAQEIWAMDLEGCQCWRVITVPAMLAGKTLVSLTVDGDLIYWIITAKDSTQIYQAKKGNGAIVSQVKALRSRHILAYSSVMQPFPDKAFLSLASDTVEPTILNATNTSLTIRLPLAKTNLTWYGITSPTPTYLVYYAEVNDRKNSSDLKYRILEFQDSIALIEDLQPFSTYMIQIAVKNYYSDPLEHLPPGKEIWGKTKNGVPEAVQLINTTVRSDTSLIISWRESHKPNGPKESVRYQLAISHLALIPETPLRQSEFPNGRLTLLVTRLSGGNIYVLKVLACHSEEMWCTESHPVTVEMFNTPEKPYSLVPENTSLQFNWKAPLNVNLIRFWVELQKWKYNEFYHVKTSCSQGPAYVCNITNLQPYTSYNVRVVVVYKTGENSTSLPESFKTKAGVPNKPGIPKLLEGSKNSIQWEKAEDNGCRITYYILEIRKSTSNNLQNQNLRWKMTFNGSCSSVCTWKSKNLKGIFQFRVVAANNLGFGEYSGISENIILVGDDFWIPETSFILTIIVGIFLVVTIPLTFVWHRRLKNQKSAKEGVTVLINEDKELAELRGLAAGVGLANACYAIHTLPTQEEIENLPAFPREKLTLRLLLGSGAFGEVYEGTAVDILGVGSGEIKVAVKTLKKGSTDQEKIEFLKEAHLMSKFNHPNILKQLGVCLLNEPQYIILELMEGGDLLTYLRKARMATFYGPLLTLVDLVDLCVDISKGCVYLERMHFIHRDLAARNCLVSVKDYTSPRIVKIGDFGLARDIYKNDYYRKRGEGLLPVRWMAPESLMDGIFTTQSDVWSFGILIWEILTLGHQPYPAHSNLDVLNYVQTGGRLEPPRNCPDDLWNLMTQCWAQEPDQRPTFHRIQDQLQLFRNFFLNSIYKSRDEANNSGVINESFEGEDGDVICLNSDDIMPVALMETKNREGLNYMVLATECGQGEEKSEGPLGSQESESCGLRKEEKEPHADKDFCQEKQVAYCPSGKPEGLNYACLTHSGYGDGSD
Procedure for D283 cells: For proliferation assay DAOY was plated with 5 x 10^4 cells per well and D283 was plated with 5 x 10^5 cells per well.

For orientation: IC50 means the concentration that inhibits the measured activity by half. Read a low IC50 as higher potency. Broadly, the % Inhibition is how much of the control response was suppressed. A low value points to a weak effect. Regarding `COc1ccc2c(c1)[C@]1(C[C@H]1c1ccc3c(/C=C/c4ccc(CN5C[C@@H](C)O[C@@H](C)C5)cc4)n[nH]c3c1)C(=O)N2` [CFI-400945], the “polyploidy (cell cycle analysis)” value in assay [1] is reported as “extreme polyploidy”; in assay [2], “No effect”; in the assay on MON rhabdoid cells [3], “time-dependent induction of polyploidy”. Further, the IC50 against DDR2 (10-point titration) is 315 nM; with G401 cells it was 3790 nM; against TEK [7] it was 109 nM; with DAOY cells, 94 nM; in the assay on BT-12 cells, 3730 nM. The “% Inhibition” value at DDR2 (DDR2, LanthaScreen Binding) was 9% and 18%. Besides, the entries for the “centrioles' number” value with MON rhabdoid cells [4] (100nM) and in the assay with MON rhabdoid cells [4] (500nM) were “slight increase” and “significant depletion”, respectively. The “% Inhibition Duplicate #1” value was 99% on ROS1 and 29% at TEK [5]. Besides, the “FC, delay in reaching confluency” value in the assay on G401 RTK cells came out at 1.78. At TEK [5], the “% Inhibition Average” value was 31%. Further, the “% Inhibition Duplicate #2” value on TEK [5] was 32%; on TEK [6], 87%; in the assay on TEK [8], 55%. Also, the “senescent cells (beta galactosidase)” value in assay [9] is given as “significant increase”. Further, the colony formation entry in the assay with D283 cells is reported as “Complete inhibition”. Moreover, the clonogenic recovery result in the assay with RT and MB cell lines is “none of the cell lines recovered their ability to generate colonies”. Further, the “cell death (apoptosis, flow cytometry) vs control” value in [10] is listed as “significantly higher percentage of cells undergoing cell death”.
